Experiments:
AFD1 cells [1] = assay: qRT-PCR gene expression after two passages on surface modified plate 4 with Rho kinase inhibitor; format: cell-based; settings: AFD1 passaged twice on modified surface 4 versus control plates
Method: Cells were passaged twice on surface modified plate 4 in the presence of either Y-27632 or H1152-glycyl and were tested for the expression of genes associated with pluripotency by qRT-PCR (FIG. 12). Expression of genes associated with and required for pluripotency (OCT4, NANOG, SOX2, TERT, and CRIPTO/TDGF) was maintained in AFD1 cells grown on modified surface 4 versus cells grown on control plates. […] This may have been due to increased expression of NANOG, which inhibits differentiation by suppressing expression of extra-embryonic ectoderm or trophoblast associated genes. Additionally, this decrease in expression of extra-embryonic ectoderm or trophoblast associated genes could occur through differential adhesion and proliferation of cells more pluripotent, and less differentiated, on modified surface 4 versus control plates.

AFD1 cells [2] = assay: Attachment / plating efficiency on surface modified plate 4 without feeder cells or adlayer; format: cell-based; settings: surface modified plate 4, MEF conditioned media
Method: The pluripotent stem cell line AFD1, was maintained in MEF conditioned media on Nunclon Delta™ plates treated with a 1:30 dilution of growth factor reduced MATRIGEL™ prior to study. Cells were dissociated from the surface for passage by 1 mg/ml dispase dissociation. AFD1 cells were then seeded onto untreated wells of surface modified plate 4 (6-well format). In parallel, AFD1 cells were also plated onto Nunclon Delta™ plates treated with 1:30 dilution of growth factor reduced MATRIGEL™ to provide as positive controls. In all treatments cells were maintained in MEF conditioned media. AFD1 cells seeded onto surface modified plate 4 did attach, however the attachment efficiency was much lower than on control plates (FIG. 11). […] Cells were thereafter maintained in a constant 10 μM Y-27632 concentration or a reduced 1 μM concentration of H1152-glycyl, respectively, with daily media change.

## Cc1cncc2cccc(S(=O)(=O)N3CCCN(C(=O)CN)C[C@@H]3C)c12.Cl.Cl [Clone H1152-glycyl, (S)-(+)-4-Glycyl-2-methyl-1-[(4-methyl-5-isoquinolinyl)sulfonyl]hexahydro-1H-1,4-diazepine dihydrochloride]
AFD1 cells [1]
  Expression of genes associated with and required for pluripotency (OCT4, NANOG, SOX2, TERT, and CRIPTO/TDGF): maintained
  relative expression of AFP, HAND2, and GATA2 (spontaneous differentiation genes): decreased significantly
AFD1 cells [2]; 3 μM for the first 24 hours in culture
  plating efficiency of the cells: significantly increased

## C[C@@H](N)[C@H]1CC[C@H](C(=O)Nc2ccncc2)CC1 [Clone Y-27632]
AFD1 cells [1]
  Expression of genes associated with and required for pluripotency (OCT4, NANOG, SOX2, TERT, and CRIPTO/TDGF): maintained
  relative expression of AFP, HAND2, and GATA2 (spontaneous differentiation genes): decreased significantly
AFD1 cells [2]; 10 μM for the first 24 hours in culture
  plating efficiency of the cells: significantly increased
